Series [1] concerns the target T1, Transthyretin (Homo sapiens, UniProt P02766). Description: Binding affinity to human serum TTR assessed as target occupancy incubated for 6 hrs by fluorescence polarization assay.
Series [2] can be described thus: Toxicity in CD-1 mouse assessed as body weight loss at 0.4 mg/kg,ip administrated upto 20 days for every 5 days. In kind it is organism-based. The settings on record: in vivo, 480 h, time < 20 day.
The test system of series [3] is LNCaP. Description: Cytotoxicity against human LNCaP cells assessed as reduction in cell viability incubated for 72 hrs by CellTiter-96 assay. In kind it is functional, cell-based.
Series [4] relates to LNCaP. Description: Cytotoxicity against human LNCaP cells assessed as reduction in cell viability incubated for 72 hrs in presence of TTR by CellTiter-96 assay. It is filed as functional, cell-based.
The subject of series [5] is DU-145. Description: Cytotoxicity against human DU-145 cells assessed as reduction in cell viability incubated for 72 hrs by CellTiter-96 assay. In kind it is functional, cell-based. To be noted: DU-145, 72 h.
Series [6] has as its system DU-145. Description: Cytotoxicity against human DU-145 cells assessed as reduction in cell viability incubated for 72 hrs in presence of TTR by CellTiter-96 assay. In kind it is functional, cell-based. To be noted: DU-145, 72 h.
In series [7] the test system is HeLa. The experiment in a line: Cytotoxicity against human HeLa cells assessed as reduction in cell viability incubated for 72 hrs by CellTiter-96 assay. It is filed as functional, cell-based.
Series [8] deals with HeLa. The experiment in a line: Cytotoxicity against human HeLa cells assessed as reduction in cell viability incubated for 72 hrs in presence of TTR by CellTiter-96 assay. It is filed as functional, cell-based.
Series [9] can be described thus: Stability of compound in PBS at 37 degreeC incubated for 24 hrs by RP-HPLC analysis. It is filed as physicochemical. To be noted: buffer.
The nature of series [10]: Stability of compound in human serum at 37 degreeC incubated for 24 hrs by RP-HPLC analysis. In kind it is ADME, cell-free.
The nature of series [11]: Stability of compound in mouse serum at 37 degreeC incubated for 24 hrs by RP-HPLC analysis. To be noted: read-out: Stability. It is filed as ADME, cell-free.
Series [12] is described as follows: Toxicity in CD-1 mouse assessed as body weight loss at 2.5 mg/kg,ip administrated upto 20 days for every 5 days. It is filed as organism-based. To be noted: in vivo, 480 h, time < 20 day.
The nature of series [13]: Drug concentration in CD-1 mouse at 2.5 mg/kg,ip measured upto 24 hrs by LC-MS/MS analysis. In kind it is ADME, organism-based. To be noted: in vivo.
Series [14] is described as follows: Drug metabolism in human liver assessed as cathepsin B mediated hydrolysis MMAE metabolite formation measured after 15 mins by HPLC/LC-MS/MS analysis. In kind it is ADME, tissue-based. The settings on record: 0.25 h.
Series [15] is described as follows: Toxicity in mouse assessed as increase in body weight at 6.2 mg/kg,ip measured upto 21 days for every 3 days. It is filed as organism-based. To be noted: in vivo, 504 h, time < 21 day.
Series [16] in a line: Toxicity in mouse assessed as maximum tolerated dose administered intraperitoneally measured upto 21 days for every 3 days. To be noted: in vivo, route ip, time < 21 day.
A short description of series [17]: Toxicity in mouse assessed as reduction in body weight at 20 mg/kg,ip measured for 21 days by every 3 days. To be noted: in vivo, 504 h, time 21 day. In kind it is organism-based.
Series [18] is described as follows: Toxicity in mouse assessed as reduction in body weight at 40 mg/kg,ip measured upto 21 days for every 3 days. It is filed as organism-based. To be noted: in vivo, 504 h, time < 21 day.
Series [19] is described as follows: Toxicity in mouse xenografted with human LNCaP cells assessed as change in body weight at 10 mg/kg,ip administrated upto 35 days for every 5 days. To be noted: in vivo, 840 h, time < 35 day. In kind it is organism-based.
Series [20] is described as follows: Drug concentration in CD-1 mouse at 3 mg/kg,ip measured upto 24 hrs by LC-MS/MS analysis. It is filed as ADME, organism-based. To be noted: in vivo.
Series [21] addresses Transthyretin (Mus musculus) (UniProt P07309). The experiment in a line: Binding affinity to mouse serum TTR assessed as target occupancy incubated for 1 hrs by fluorescence polarization assay.
For series [22], the target named is T1, Transthyretin. The experiment in a line: Binding affinity to human TTR incubated for 20 mins by fluorescence polarization assay.
Series [23] is described as follows: Toxicity in CD-1 mouse assessed as body weight loss at 3.1 mg/kg,ip administrated upto 20 days for every 5 days. It is filed as organism-based. The settings on record: in vivo, 480 h, time < 20 day.
Series [24] can be described thus: Drug metabolism in human liver assessed as cathepsin B mediated hydrolysis MMAE metabolite formation measured after 30 mins by HPLC/LC-MS/MS analysis. It is filed as ADME, tissue-based. To be noted: 0.5 h.
The test system of series [25] is LNCaP. The experiment in a line: Antitumor activity against human LNCaP cells xenografted mouse assessed as reduction in tumor growth at 3.1 mg/kg,ip administrated upto 35 days for every 5 days. It is filed as functional, organism-based. To be noted: time <= 35.0 day.
A short description of series [26]: Toxicity in mouse xenografted with human LNCaP cells assessed as increase in body weight at 3.1 mg/kg,ip administrated upto 35 days for every 5 days. It is filed as organism-based. To be noted: in vivo, 840 h, time < 35 day.
Series [27] in a line: Toxicity in mouse xenografted with human LNCaP cells assessed as mouse survival time at 3.1 mg/kg,ip administrated upto 35 days for every 5 days. The settings on record: in vivo, 840 h, time < 35 day. It is filed as organism-based.
In series [28] the test system is LNCaP. The experiment in a line: Antitumor activity against human LNCaP cells xenografted mouse assessed as reduction in tumor relapse at 3.1 mg/kg,ip administrated upto 35 days for every 5 days. In kind it is functional, organism-based. The settings on record: time <= 35.0 day.

Here are results for six molecules from ChEMBL document CHEMBL5150030, “Enhancing the Safety and Efficacy of PSMA-Based Small-Molecule Drug Conjugates by Linker Stabilization and Conjugation to Transthyretin Binding Ligand” (J Med Chem, 2022).

Active and inactive are the calls of the source. No cut-off for these calls is given here. Square brackets hold non-standard residues; d marks the D form. Peptide text beside a SMILES is read from it. * marks the point of attachment. Dolaproine = CO[C@@H]([C@@H]1CCCN1)[C@@H](C)C(=O)O; Dil = CC[C@H](C)[C@H](NC)[C@@H](CC(=O)O)OC; X1 = C[C@@H](N*)[C@@H](O)c1ccccc1; NMeV = CN[C@H](C(=O)O)C(C)C

In the case of `O=C(O)c1ccc2nc(-c3cc(Cl)cc(Cl)c3)oc2c1`, the Activity on Transthyretin [1] is 49.5%.
For `CC[C@H](C)[C@@H]([C@@H](CC(=O)N1CCC[C@H]1[C@H](OC)[C@@H](C)C(=O)N[C@H](C)[C@@H](O)c1ccccc1)OC)N(C)C(=O)[C@@H](NC(=O)[C@@H](NC)C(C)C)C(C)C` (H-[NMeV]V[Dil][Dolaproine]-X1), in [2], the Activity entry is “Toxic”. Moreover, the concentration for half-maximal inhibition (IC50) in the series with LNCaP [3] worked out at 0.79 nM; with LNCaP [4], 0.71 nM; with DU-145 [5], 0.55 nM; with DU-145 [6] it was 0.62 nM; in the series with HeLa [7] it was 1.1 nM; in the series with HeLa [8] it was 1 nM.
As for `C#CCC(NC(=O)CCSC1CC(=O)N(CCCCCC(=O)N[C@@H](CCC(=O)O)C(=O)N[C@H](C(=O)N[C@@H](CCCNC(N)=O)C(=O)Nc2ccc(COC(=O)N(C)[C@H](C(=O)N[C@H](C(=O)N(C)[C@@H]([C@@H](C)CC)[C@@H](CC(=O)N3CCC[C@H]3[C@H](OC)[C@@H](C)C(=O)N[C@H](C)[C@@H](O)c3ccccc3)OC)C(C)C)C(C)C)cc2)C(C)C)C1=O)C(=O)NCCCCCC(=O)NCCCC[C@H](NC(=O)N[C@@H](CCC(=O)O)C(=O)O)C(=O)O` (some centres not stated), the Stability entry in series [9] and in [10] was “Stable” in each case. The remaining at 24 h in series [11] is 64.1%. Moreover, the Activity entry is given as “Non-Toxic” in [12] and “Toxic” in series [15]. For the same molecule, in [13], the Drug uptake entry is on record as “Active”. In addition, in [14], the Drug metabolism entry is reported as “Metabolite_Detected”. For the same molecule, the IC50 in the series with LNCaP [3] was determined as 0.83 nM; in the series on LNCaP [4], 0.81 nM; in the series with DU-145 [5] it was 1050 nM; in the series with DU-145 [6], 1020 nM; with HeLa [7] it was 551 nM; in the series on HeLa [8], 525 nM. Besides, the MTD at 504 h in series [16] came out at 5 mg/kg.
With `CC(=O)O[C@@]12CO[C@@H]1C[C@H](O)[C@@]1(C)C(=O)[C@H](O)C3=C(C)[C@@H](OC(=O)[C@H](O)[C@@H](NC(=O)OC(C)(C)C)c4ccccc4)C[C@@](O)([C@@H](OC(=O)c4ccccc4)[C@H]21)C3(C)C` [DOCETAXEL ANHYDROUS], the Activity result in series [17] is reported as “Toxic”; in series [18], “Toxic”; in series [19], “Non-Toxic”.
For `CC[C@H](C)[C@@H]([C@@H](CC(=O)N1CCC[C@H]1[C@H](OC)[C@@H](C)C(=O)N[C@H](C)[C@@H](O)c1ccccc1)OC)N(C)C(=O)[C@@H](NC(=O)[C@H](C(C)C)N(C)C(=O)OCc1ccc(NC(=O)[C@H](CCCNC(N)=O)NC(=O)[C@@H](NC(=O)[C@H](CCC(=O)O)NC(=O)CCCCCN2C(=O)CC(SCCC(=O)NC(Cc3cn(CCOCCOCCNCCCCCCOc4cc(OCCCc5c(C)n[nH]c5C)cc(C(=O)O)c4)nn3)C(=O)NCCCCCC(=O)NCCCC[C@H](NC(=O)N[C@@H](CCC(=O)O)C(=O)O)C(=O)O)C2=O)C(C)C)cc1)C(C)C` (some centres not stated), the Drug uptake result in series [20] was “Active”. For the same molecule, the outcome (in [21]; in the series on LNCaP [25]; with LNCaP [28]) was Active. For the same molecule, the results for the Activity (on Transthyretin [1]; in [23]; in series [26]) were 67.5%, “Non-Toxic” and “Toxic”, respectively. At Transthyretin [22], this molecule registered a Kd of 448 nM. The Stability entry in series [9] and in series [10] was “Stable” in each case. Moreover, the remaining at 24 h in series [11] turned out to be 71.3%. The Drug metabolism entry in series [24] is “Metabolite_Detected”. Also, the IC50 in the series on LNCaP [3] came to 1.02 nM; in the series with LNCaP [4] it was 1.19 nM; with DU-145 [5], 421 nM; in the series with DU-145 [6], 1250 nM; with HeLa [7], 259 nM; in the series on HeLa [8], 816 nM. In addition, the MTD at 504 h in series [16] stood at 3.1 mg/kg. The Survival in series [27] amounted to 100 days.
Turning to `Cc1n[nH]c(C)c1CCCOc1cc(OCCCCCCNCCOCCOCCN=[N+]=[N-])cc(C(=O)O)c1`, the Activity on Transthyretin [1] is 80.7%. The Kd on Transthyretin [22] amounted to 74.3 nM.
